Measurements taken from patent US20220235011A1, “PHTHALAZINONE COMPOUNDS AND USE THEREOF” (ST PHARM CO., LTD., priority 2019, published 2022).

Target: T1, Sirt6 (Homo sapiens, UniProt Q8N6T7)
T1 construct: purchased CycLex CY-1156V2
Test: Measurement of Sirt6 Activity (CycLex Sirt6 Deacetylase Fluorometric Assay Kit)
Format: biochemical
Conditions: compound at 10 μM; fluorescence relative to the group without compound treatment (positive control group)
Summary of the method: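 Recombinant Sirt6 with fluoro-labelled acetyl-lysine peptide, NAD and lysylendopeptidase developer, compound added from 10× stock in PBS; 1 h at room temperature. Fluorescence read at ex 490/em 530 nm; activation expressed as fluorescence ratio relative to enzyme without compound.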

T1 sequence (Q8N6T7 whole entry): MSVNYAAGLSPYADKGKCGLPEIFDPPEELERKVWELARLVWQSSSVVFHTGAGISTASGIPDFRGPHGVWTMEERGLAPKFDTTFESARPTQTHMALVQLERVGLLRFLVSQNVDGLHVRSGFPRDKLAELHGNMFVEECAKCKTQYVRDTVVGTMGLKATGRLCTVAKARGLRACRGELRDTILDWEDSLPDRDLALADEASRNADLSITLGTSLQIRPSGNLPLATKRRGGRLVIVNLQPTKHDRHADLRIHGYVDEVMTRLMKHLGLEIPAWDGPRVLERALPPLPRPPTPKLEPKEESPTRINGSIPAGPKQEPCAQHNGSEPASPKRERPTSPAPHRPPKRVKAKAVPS

SMILES | Sirt6 Activity (% activity, 10 μM)
CN(C)S(=O)(=O)c1cccc(-c2nn(-c3ccc(F)cc3F)c(=O)c3ccc(F)cc23)c1 [Example 125, 3-(3-(2,4-Difluorophenyl)-7-fluoro-4-oxo-3,4-dihydrophthalazin-1-yl)-N,N-dimethylbenzenesulfonamide] | 172 % activity
CCS(=O)(=O)Nc1cccc(-c2nn(C3CCCCC3)c(=O)c3ccccc23)c1 [Example 128, N-(3-(3-Cyclohexyl-4-oxo-3,4-dihydrophthalazin-1-yl)phenyl)ethanesulfonamide] | 177.53 % activity
N/C(=N/O)c1cccc(-c2nn(-c3ccc(F)cc3)c(=O)c3ccccc23)c1 [Example 131, (E)-3-(3-(4-Fluorophenyl)-4-oxo-3,4-dihydrophthalazin-1-yl)-N′-hydroxybenzimidamide] | 102.08 % activity
CCS(=O)(=O)NC1CCCN(c2nn(-c3ccc(F)cc3)c(=O)c3ccccc23)C1 (stereo not drawn) [Example 135, N-(1-(3-(4-Fluorophenyl)-4-oxo-3,4-dihydrophthalazin-1-yl)piperidin-3-yl)ethanesulfonamide] | 174.93 % activity
CCS(=O)(=O)NC1CCN(c2nn(-c3ccc(F)cc3)c(=O)c3ccccc23)C1 (stereo not drawn) [Example 137, N-(1-(3-(4-Fluorophenyl)-4-oxo-3,4-dihydrophthalazin-1-yl)pyrrolidin-3-yl)ethanesulfonamide] | 112.58 % activity
CCS(=O)(=O)N[C@H]1CCCN(c2nn(-c3ccc(F)cc3)c(=O)c3ccccc23)C1 [Example 138, (S)—N-(1-(3-(4-Fluorophenyl)-4-oxo-3,4-dihydrophthalazin-1-yl)piperidin-3-yl)ethanesulfonamide] | 175.98 % activity
CCS(=O)(=O)Nc1cccc(-c2nn(C3CCC(F)(F)CC3)c(=O)c3ccccc23)c1 [Example 140, N-(3-(3-(4,4-Difluorocyclohexyl)-4-oxo-3,4-dihydrophthalazin-1-yl)phenyl)ethanesulfonamide] | 134.41 % activity
NS(=O)(=O)c1cccc(-c2nn(C3CCCCC3)c(=O)c3ccccc23)c1 [Example 142, 3-(3-Cyclohexyl-4-oxo-3,4-dihydrophthalazin-1-yl)benzenesulfonamide] | 162.3 % activity
Cl.NC1CCCCN(c2nn(C3CCCCC3)c(=O)c3ccccc23)C1 (stereo not drawn) [Example 143, 4-(3-Aminoazepan-1-yl)-2-cyclohexyl phthalazin-1(2H)-one-hydrochloride] | 238.3 % activity
CCS(=O)(=O)NC1CCCCN(c2nn(C3CCCCC3)c(=O)c3ccccc23)C1 (stereo not drawn) [Example 144, N-(1-(3-Cyclohexyl-4-oxo-3,4-dihydrophthalazin-1-yl)azepan-3-yl)ethanesulfonamide] | 164.1 % activity
CCS(=O)(=O)Nc1cccc(-c2nn(C3CCC(C)CC3)c(=O)c3ccccc23)c1 (stereo not drawn) [Example 145, N-(3-(3-(4-Methylcyclohexyl)-4-oxo-3,4-dihydrophthalazin-1-yl)phenyl)ethanesulfonamide] | 136.6 % activity
Cl.NC1CCCCN(c2nn(-c3ccc(F)cc3)c(=O)c3ccccc23)C1 (stereo not drawn) [Example 148, 4-(3-Aminoazepan-1-yl)-2-(4-fluorophenyl)phthalazin-1(2H)-one-hydrochloride] | 184.3 % activity
CCS(=O)(=O)Nc1cccc(-c2nn(-c3ccc(F)cc3)c(=O)c3cccc(C)c23)c1 [Example 150, N-(3-(3-(4-Fluorophenyl)-8-methyl-4-oxo-3,4-dihydrophthalazin-1-yl)phenyl)ethanesulfonamide] | 104.7 % activity
CC(C)(C(=O)O)c1cccc(-c2nn(-c3ccc(F)cc3)c(=O)c3ccccc23)c1 [Example 152, 2-(3-(3-(4-Fluorophenyl)-4-oxo-3,4-dihydrophthalazin-1-yl)phenyl)-2-methylpropanoic Acid] | 195.5 % activity
CNC(=O)C(C)(C)c1cccc(-c2nn(-c3ccc(F)cc3)c(=O)c3ccccc23)c1 [Example 153, 2-(3-(3-(4-Fluorophenyl)-4-oxo-3,4-dihydrophthalazin-1-yl)phenyl)-N,2-dimethylpropanamide] | 280.4 % activity
CS(=O)(=O)c1cccc(-c2nn(C3CCCCC3)c(=O)c3ccccc23)c1 [Example 154, 2-Cyclohexyl-4-(3-(methylsulfonyl)phenyl)phthalazin-1(2H)-one] | 263.7 % activity
Cl.N[C@H]1CCCCN(c2nn(C3CCCCC3)c(=O)c3ccccc23)C1 [Example 155, (S)-4-(3-Aminoazepan-1-yl)-2-cyclohexyl phthalazin-1(2H)-one-hydrochloride] | 230.9 % activity
CN[C@H]1CCCCN(c2nn(C3CCCCC3)c(=O)c3ccccc23)C1.Cl [Example 156, (S)-2-Cyclohexyl-4-(3-(methylamino)azepan-1-yl)phthalazin-1(2H)-one-hydrochloride] | 223.9 % activity
Cl.N[C@H]1CCCCN(c2nn(-c3ccc(F)cc3F)c(=O)c3ccccc23)C1 [Example 157, (S)-4-(3-Aminoazepan-1-yl)-2-(2,4-difluorophenyl)phthalazin-1(2H)-one-hydrochloride] | 244.1 % activity
Cl.N[C@H]1CCCCN(c2nn(-c3ccc(F)cc3)c(=O)c3ccccc23)C1 [Example 158, (S)-4-(3-Aminoazepan-1-yl)-2-(4-fluorophenyl)phthalazin-1(2H)-one-hydrochloride] | 164.7 % activity

Next, values leading:

Sirt6 Activity (% activity, 10 μM) | SMILES
146 % activity | CCNS(=O)(=O)c1cccc(-c2nn(-c3ccc(F)cc3F)c(=O)c3ccc(F)cc23)c1 [Example 124, 3-(3-(2,4-Difluorophenyl)-7-fluoro-4-oxo-3,4-dihydrophthalazin-1-yl)-N-ethylbenzenesulfonamide]
185 % activity | NS(=O)(=O)c1cccc(-c2nn(-c3ccc(F)cc3F)c(=O)c3ccccc23)c1 [Example 126, 3-(3-(2,4-Difluorophenyl)-4-oxo-3,4-dihydrophthalazin-1-yl)benzenesulfonamide]
321 % activity | O=c1c2ccccc2c(-c2cccc(S(=O)(=O)NCCO)c2)nn1-c1ccc(F)cc1F [Example 127, 3-(3-(2,4-Difluorophenyl)-4-oxo-3,4-dihydrophthalazin-1-yl)-N-(2-hydroxyethyl)benzene Sulfonamide]
104.16 % activity | CCS(=O)(=O)Nc1cccc(-c2nn(C3CCN(C)CC3)c(=O)c3ccccc23)c1 [Example 129, N-(3-(3-(1-Methylpiperidin-4-yl)-4-oxo-3,4-dihydrophthalazin-1-yl)phenyl)ethane Sulfonamide]
120.16 % activity | N#Cc1cccc(-c2nn(-c3ccc(F)cc3)c(=O)c3ccccc23)c1 [Example 130, 3-(3-(4-Fluorophenyl)-4-oxo-3,4-dihydrophthalazin-1-yl)benzonitrile]
107.58 % activity | CCS(=O)(=O)Nc1cccc(-c2nn(C(C)C)c(=O)c3ccccc23)c1 [Example 132, N-(3-(3-Isopropyl-4-oxo-3,4-dihydrophthalazin-1-yl)phenyl)ethanesulfonamide]
118.8 % activity | CCS(=O)(=O)Nc1cccc(-c2nn(-c3cnn(C)c3)c(=O)c3ccccc23)c1 [Example 133, N-(3-(3-(1-Methyl-1H-pyrazol-4-yl)-4-oxo-3,4-dihydrophthalazin-1-yl)phenyl)ethanesulfonamide]
167.53 % activity | Cl.NC1CCCN(c2nn(-c3ccc(F)cc3)c(=O)c3ccccc23)C1 (stereo not drawn) [Example 134, 4-(3-Aminopiperidin-1-yl)-2-(4-fluorophenyl)phthalazin-1(2H)-one-hydrochloride]
101.27 % activity | CCS(=O)(=O)Nc1cccc(-c2nn(C3COC3)c(=O)c3ccccc23)c1 [Example 136, N-(3-(3-(Oxetan-3-yl)-4-oxo-3,4-dihydrophthalazin-1-yl)phenyl)ethanesulfonamide]
130.07 % activity | CCS(=O)(=O)N[C@@H]1CCCN(c2nn(-c3ccc(F)cc3)c(=O)c3ccccc23)C1 [Example 139, (R)—N-(1-(3-(4-Fluorophenyl)-4-oxo-3,4-dihydrophthalazin-1-yl)piperidin-3-yl)ethanesulfonamide]
212.55 % activity | CCS(=O)(=O)NC1CCCCN(c2nn(-c3ccc(F)cc3)c(=O)c3ccccc23)C1 (stereo not drawn) [Example 141, N-(1-(3-(4-Fluorophenyl)-4-oxo-3,4-dihydrophthalazin-1-yl)azepan-3-yl)ethanesulfonamide]
135.2 % activity | Cl.N[C@H]1CCCN(c2nn(C3CCCCC3)c(=O)c3ccccc23)C1 [Example 146, (S)-4-(3-Aminopiperidin-1-yl)-2-cyclohexylphthalazin-1(2H)-one-hydrochloride]
127.7 % activity | CCS(=O)(=O)N[C@H]1CCCN(c2nn(C3CCCCC3)c(=O)c3ccccc23)C1 [Example 147, (S)—N-(1-(3-Cyclohexyl-4-oxo-3,4-dihydrophthalazin-1-yl)piperidin-3-yl)ethanesulfonamide]
114.9 % activity | CCS(=O)(=O)Nc1cccc(-c2cn(-c3ccc(F)cc3)c(=O)c3ccncc23)c1 [Example 149, N-(3-(2-(4-Fluorophenyl)-1-oxo-1,2-dihydropyrido[3,4-d]pyridin-4-yl)phenyl)ethanesulfonamide]
398.8 % activity | Cl.N[C@@H]1CCCCN(c2nn(C3CCCCC3)c(=O)c3ccccc23)C1 [Example 159, (R)-4-(3-Aminoazepan-1-yl)-2-cyclohexyl phthalazin-1(2H)-one-hydrochloride]
289.8 % activity | CC(C)(C(=O)O)c1cccc(-c2nn(C3CCCCC3)c(=O)c3ccccc23)c1 [Example 160, 2-(3-(3-Cyclohexyl-4-oxo-3,4-dihydrophthalazin-1-yl)phenyl)-2-methylpropanoic Acid]
